Laboratory results published in patent publication EP4667451A1, “PESTICIDALLY-ACTIVE 2,2-DIHALOCYCLOPROPYL COMPOUNDS” (Syngenta Crop Protection AG, priority 2024, dated 2025).

Columns and labels:
Type in all cases: in vivo
[1] = tested on: Myzus persicae (Green peach aphid); experiment: Myzus persicae (Green peach aphid) systemic activity, pea seedling roots in test solution; settings: 144 h, test rate of 24 ppm, assessed 6 days after placing seedlings into test solutions
Description: Myzus persicae (Green peach aphid) Systemic activity
Roots of pea seedlings infested with an aphid population of mixed ages were placed directly into aqueous test solutions prepared from 10,000 DMSO stock solutions. The samples were assessed for mortality 6 days after placing seedlings into test solutions.

[2] = tested on: Aphis craccivora (Black bean aphid); experiment: Aphis craccivora (Black bean aphid), mixed population, systemic/feeding, pea seedlings in test solutions; settings: 120 h, application rate of 24 ppm, assessed 5 days later, read-out: growth inhibition
Description: Aphis craccivora (Black bean aphid), mixed population, systemic/feeding Pea seedlings infested with mixed aged aphid population, were put into glass vials with test solutions. 5 days later, samples were assessed for mortality.

[3] = tested on: Myzus persicae (Green peach aphid); experiment: Myzus persicae (Green peach aphid) intrinsic activity, sucrose solution feeding through Parafilm; settings: test rate of 12 ppm, assessed 5 days after infestation; for mortality at 12 ppm: Myzus persicae, 120 h
Description: Myzus persicae (Green peach aphid) Intrinsic activity
Test compounds prepared from 10,000 ppm DMSO stock solutions were applied by pipette into 24-well microtiter plates and mixed with sucrose solution. The plates were closed with a stretched Parafilm. A plastic stencil with 24 holes was placed onto the plate and infested pea seedlings were placed directly on the Parafilm. The infested plate was closed with a gel blotting paper and another plastic stencil and then turned upside down. The samples were assessed for mortality 5 days after infestation.

[4] = tested on: Myzus persicae (Green peach aphid); experiment: Myzus persicae (Green peach aphid) feeding/contact activity, sprayed eggplant leaf discs; settings: application rate of 200 ppm, assessed 6 days after infestation
Description: Myzus persicae (Green peach aphid) Feeding/Contact activity Eggplant leaf discs were placed onto agar in a 24-well microtiter plate and sprayed with aqueous test solutions prepared from 10,000 ppm DMSO stock solutions. After drying, the leaf discs were infested with an aphid population of mixed ages. The samples were assessed for mortality 6 days after infestation.

O=C(NCCCCCCC1CC1(F)Br)c1ccccc1 (stereo not shown) [Compound A4, N-[6-(2-bromo-2-fluoro-cyclopropyl)hexyl]benzamide]
mortality at 24 ppm [1]: ≥ 80%

OCCCCCCC1CC1(F)Br (stereo not shown) [Compound A7, 6-(2-bromo-2-fluoro-cyclopropyl)hexan-1-ol]
inhibition at 24 ppm [2]: ≥ 80%

O=C(OCCCCCCC1CC1(F)Br)c1ccccc1 (stereo not shown) [Compound A8, 6-(2-bromo-2-fluoro-cyclopropyl)hexyl benzoate]
inhibition at 24 ppm [2]: ≥ 80%

OCCCCC1CC1(F)Br (stereo not shown) [Compound A9, 4-(2-bromo-2-fluoro-cyclopropyl)butan-1-ol]
mortality at 12 ppm [3]: ≥ 80%
inhibition at 24 ppm [2]: ≥ 80%

O=C(NCCCCC1CC1(F)Br)C1CC1 (stereo not shown) [Compound A24, N-[4-(2-bromo-2-fluoro-cyclopropyl)butyl]cyclopropanecarboxamide]
inhibition at 200 ppm ([4]; Myzus persicae, foliar, 144 h, read-out: growth inhibition): ≥ 80%

O=C(NCCCCC1CC1(F)Br)N1CCCCC1 (stereo not shown) [Compound A43, N-[4-(2-bromo-2-fluoro-cyclopropyl)butyl]piperidine-1-carboxamide]
mortality at 12 ppm [3]: ≥ 80%

N-[4-(2-bromo-2-fluoro-cyclopropyl)butyl]-2,3-dihydro-1,4-benzodioxine-5-sulfonamide [Compound A27]
growth inhibition [4]: at least 80%

N-[4-(2-bromo-2-fluoro-cyclopropyl)butyl]-3,5-dimethyl-isoxazole-4-sulfonamide [Compound A11]
mortality [3]: at least 80%

N-[4-(2-bromo-2-fluoro-cyclopropyl)butyl]-6-methyl-pyridine-3-sulfonamide [Compound A10]
growth inhibition [4]: at least 80%
